In this assay the target is T1, BRD9-GFP (Homo sapiens, UniProt Q9H8M2).
T1 construct: CHYSEL (2A cis-acting hydrolase element) remnant after GFP; mCherry is split off as a separate protein (C); expressed in transfected cells; host or cells: HEK293A cells (Invitrogen R70507), lentiviral transduction with pLenti6-BRD9-GFP-CHYSEL-mCherry, blasticidin selection
T1 sequence (Q9H8M2 1-597): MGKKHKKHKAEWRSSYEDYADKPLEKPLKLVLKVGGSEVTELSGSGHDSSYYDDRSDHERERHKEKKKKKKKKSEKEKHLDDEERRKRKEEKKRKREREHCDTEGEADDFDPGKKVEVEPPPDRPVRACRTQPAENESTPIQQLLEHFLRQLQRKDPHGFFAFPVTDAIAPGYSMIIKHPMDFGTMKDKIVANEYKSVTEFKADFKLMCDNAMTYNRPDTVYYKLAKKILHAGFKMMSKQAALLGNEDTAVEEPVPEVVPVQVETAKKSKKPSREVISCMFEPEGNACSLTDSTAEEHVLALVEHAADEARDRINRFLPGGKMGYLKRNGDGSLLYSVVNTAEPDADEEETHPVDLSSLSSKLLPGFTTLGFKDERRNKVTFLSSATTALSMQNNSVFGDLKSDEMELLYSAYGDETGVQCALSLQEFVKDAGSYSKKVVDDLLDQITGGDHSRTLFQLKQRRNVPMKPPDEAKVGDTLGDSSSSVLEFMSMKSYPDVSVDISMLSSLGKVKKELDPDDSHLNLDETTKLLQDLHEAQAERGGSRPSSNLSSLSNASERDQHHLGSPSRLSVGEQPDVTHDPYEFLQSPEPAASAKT
Description: BRD9-GFP protein abundance flow cytometry assay in HEK293A cells. The class given is cell-based. The settings on record: HEK293A-BRD9-GFP-CHYSEL-mCherry cells; for BRD9 Deg Amax %: 24 h, % protein remaining at the concentration at which maximum degradation is seen; for DC50: 24 h at 37° C., 10-point 1:3 dilution, concentration at which 50% maximal degradation was observed. Summed up:
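HEK293A cells stably express bicistronic BRD9-GFP-CHYSEL-mCherry and received 24 h treatment at 37° C with a 10-point, 3-fold dilution series from […], in 0.1% DMSO and duplicate. Median GFP/mCherry ratio of 5,000 single cells by flow cytometry, normalized to mCherry-only cells (0%) and DMSO (100%), gave DC50 and Amax (% protein remaining).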

On to `CCCCn1cc(-c2cc(OC)c(OC3CCN(CC4CCN(C(=O)c5ccc(Cl)c(N6CCC(=O)NC6=O)c5)CC4)CC3)c(OC)c2)c2ccncc2c1=O` [Compound B9, 1-(5-(4-((4-(4-(2-butyl-1-oxo-1,2-dihydro-2,7-naphthyridin-4-yl)-2,6-dimethoxyphenoxy)piperidin-1-yl)methyl)piperidine-1-carbonyl)-2-chlorophenyl)dihydropyrimidine-2,4(1H,3H)-dione], for which the “BRD9 Deg Amax %” value amounted to 14.33% and the DC50 (in general, the concentration giving 50% degradation) came to 1 nM.
The corresponding values for `COc1ccc(C(=O)N2CCC(CN3CCC(Oc4ccc(-c5cn(C)c(=O)c6cnccc56)cc4)CC3)CC2)cc1N1CCC(=O)NC1=O` [Compound A12, 1-(2-Methoxy-5-(4-((4-(4-(2-methyl-1-oxo-1,2-dihydro-2,7-naphthyridin-4-yl)phenoxy)piperidin-1-yl)methyl)piperidine-1-carbonyl)phenyl)dihydropyrimidine-2,4(1H,3H)-dione] are 13.46% and 2 nM.
On the same counts, the results for `CCCCn1cc(-c2cc(F)c(CCN3CCC(OC4CCN(C(=O)c5ccc(Cl)c(N6CCC(=O)NC6=O)c5)CC4)CC3)c(OC)c2)c2ccncc2c1=O` [Compound E53, 1-(5-(4-((1-(4-(2-butyl-1-oxo-1,2-dihydro-2,7-naphthyridin-4-yl)-2-fluoro-6-methoxyphenethyl)-piperidin-4-yl)oxy)piperidine-1-carbonyl)-2-chlorophenyl)dihydro-pyrimidine-2,4(1H,3H)-dione] are 16.11% and 4 nM.
Turning to `CCCCn1cc(-c2cc(OC)c(OCC3CCN(CC4CCN(C(=O)c5ccc(OC)c(N6CCC(=O)NC6=O)c5)CC4)CC3)c(OC)c2)c2ccncc2c1=O` [Compound B7, 1-(5-(4-((4-((4-(2-butyl-1-oxo-1,2-dihydro-2,7-naphthyridin-4-yl)-2,6-dimethoxyphenoxy)methyl)piperidin-1-yl)methyl)piperidine-1-carbonyl)-2-methoxyphenyl)dihydropyrimidine-2,4(1H,3H)-dione], the “BRD9 Deg Amax %” value was 17.54% and half-maximal degradation (DC50) was put at 7 nM.
As to `CCCn1cc(-c2ccc(CN3CC[C@@H](OC4CCN(C(=O)c5cccc(N6CCC(=O)NC6=O)c5)CC4)[C@H](F)C3)cc2)c(C)c(C)c1=O` [Compound E5, 1-(3-(4-(((3R,4R)-1-(4-(4,5-dimethyl-6-oxo-1-propyl-1,6-dihydropyridin-3-yl)benzyl)-3-fluoropiperidin-4-yl)oxy)piperidine-1-carbonyl)phenyl)dihydropyrimidine-2,4(1H,3H)-dione], the “BRD9 Deg Amax %” value came out at 14.46% and the DC50 is 5 nM.
Take `CCCCn1cc(-c2ccc(O[C@H]3CCN(CC4CCN(C(=O)COc5ccc(C)c(N6CCC(=O)NC6=O)c5)CC4)C[C@@H]3F)c(OC)c2)c2ccncc2c1=O` [Compound E25, 1-(5-(2-(4-(((3S,4S)-4-(4-(2-Butyl-1-oxo-1,2-dihydro-2,7-naphthyridin-4-yl)-2-methoxyphenoxy)-3-fluoropiperidin-1-yl)methyl)piperidin-1-yl)-2-oxoethoxy)-2-methylphenyl)dihydropyrimidine-2,4(1H,3H)-dione]: the “BRD9 Deg Amax %” value is 13.02% and the 50% degradation concentration (DC50) was 1 nM.
For the compound `CCCn1cc(-c2cc(F)c(CCN3CCC(OC4CCN(C(=O)c5ccc(Cl)c(N6CCC(=O)NC6=O)c5)CC4)CC3)c(OC)c2)c(C)c(C)c1=O` [Compound E52, 1-(2-Chloro-5-(4-((1-(4-(4,5-dimethyl-6-oxo-1-propyl-1,6-dihydropyridin-3-yl)-2-fluoro-6-methoxyphenethyl)piperidin-4-yl)oxy)piperidine-1-carbonyl)phenyl)dihydropyrimidine-2,4(1H,3H)-dione], the “BRD9 Deg Amax %” value came out at 14.99% and the DC50 is 4 nM.
As to `CCCCn1cc(-c2ccc(OC3CCN(CC4CCN(C(=O)c5ccc(OC)c(N6CCC(=O)NC6=O)c5)CC4)CC3)c(Cl)c2)c2ccncc2c1=O` [Compound E43, 1-(5-(4-((4-(4-(2-butyl-1-oxo-1,2-dihydro-2,7-naphthyridin-4-yl)-2-chlorophenoxy)piperidin-1-yl)methyl)piperidine-1-carbonyl)-2-methoxyphenyl)dihydropyrimidine-2,4(1H,3H)-dione], the “BRD9 Deg Amax %” value is reported as 17.45% and the DC50 was 3 nM.
On the same counts, the results for `CCCCn1cc(-c2cc(OC)c(CCN3CCC(OC4CCN(C(=O)c5ccc(Cl)c(N6CCC(=O)NC6=O)c5)CC4)CC3)c(OC)c2)c2ccncc2c1=O` [Compound B4, 1-(5-(4-((1-(4-(2-butyl-1-oxo-1,2-dihydro-2,7-naphthyridin-4-yl)-2,6-dimethoxyphenethyl)piperidin-4-yl)oxy)piperidine-1-carbonyl)-2-chlorophenyl)dihydropyrimidine-2,4(1H,3H)-dione] are 14.82% and 3 nM.
In the case of `Cn1cc(-c2cc(F)c(CCN3CCC(OC4CCN(CCn5cccc(CN6CCC(=O)NC6=O)c5=O)CC4)CC3)c(F)c2)c2ccncc2c1=O` [Compound E27, 1-((1-(2-(4-((1-(2,6-difluoro-4-(2-methyl-1-oxo-1,2-dihydro-2,7-naphthyridin-4-yl)phenethyl)piperidin-4-yl)oxy)piperidin-1-yl)ethyl)-2-oxo-1,2-dihydropyridin-3-yl)methyl)dihydropyrimidine-2,4(1H,3H)-dione], the “BRD9 Deg Amax %” value is given as 22.28% and it took 33 nM to reach half-maximal degradation (DC50).
Consider `CCCn1cc(-c2cc(OC)c(CCN3CC[C@@H](OC4CCN(CCn5cccc(CN6CCC(=O)NC6=O)c5=O)CC4)[C@H](F)C3)c(OC)c2)c(C)c(C)c1=O` [Compound E7, 1-((1-(2-(4-(((3R,4R)-1-(4-(4,5-Dimethyl-6-oxo-1-propyl-1,6-dihydropyridin-3-yl)-2,6-dimethoxyphenethyl)-3-fluoropiperidin-4-yl)oxy)piperidin-1-yl)ethyl)-2-oxo-1,2-dihydropyridin-3-yl)methyl)dihydropyrimidine-2,4(1H,3H)-dione], for which the “BRD9 Deg Amax %” value is recorded as 18.57% and the DC50 amounted to 4 nM.
`COc1cc(-c2cn(C)c(=O)c(C)c2C)ccc1CN1CCN(CC2CCN(C(=O)c3cccc(N4CCC(=O)NC4=O)c3)CC2)CC1` [Compound A15, 1-(3-(4-((4-(2-Methoxy-4-(1,4,5-trimethyl-6-oxo-1,6-dihydropyridin-3-yl)benzyl)piperazin-1-yl)methyl)piperidine-1-carbonyl)phenyl)dihydropyrimidine-2,4(1H,3H)-dione]: the “BRD9 Deg Amax %” value came out at 29.47% and the DC50 worked out at 49 nM.
The corresponding values for `COc1cc(-c2cn(C)c(=O)c3cnccc23)c(OC)cc1OC1CCN(CC2CCN(C(=O)c3ccc(OC)c(N4CCC(=O)NC4=O)c3)CC2)CC1` [Compound A20, 1-(5-(4-((4-(2,5-Dimethoxy-4-(2-methyl-1-oxo-1,2-dihydro-2,7-naphthyridin-4-yl)phenoxy)piperidin-1-yl)methyl)piperidine-1-carbonyl)-2-methoxyphenyl)dihydropyrimidine-2,4(1H,3H)-dione] are 9.75% and 14 nM.
Take `COc1cc(-c2cn(C)c(=O)c3cnccc23)c(OC)cc1CCN1CCC(OC2CCN(C(=O)c3ccc(Cl)c(N4CCC(=O)NC4=O)c3)CC2)CC1` [Compound A39, 1-(2-Chloro-5-(4-((1-(2,5-dimethoxy-4-(2-methyl-1-oxo-1,2-dihydro-2,7-naphthyridin-4-yl)phenethyl)piperidin-4-yl)oxy)piperidine-1-carbonyl)phenyl)dihydropyrimidine-2,4(1H,3H)-dione]: the “BRD9 Deg Amax %” value was 16.72% and half-maximal degradation (DC50) was put at 21 nM.

The values above are taken from patent US20220315578A1, “BRD9 BIFUNCTIONAL DEGRADERS AND THEIR METHODS OF USE” (NOVARTIS AG, priority 2019, published 2022).
